From article PMC8155022 (Scientific Reports, 2021)

What was measured:
RARα = biological target: T1, RARα (Homo sapiens, UniProt P10276); assay: nuclear receptor cellular GAL4 reporter assay; assay type: cell-based; conditions: agonist and antagonist mode; read-out: potency in agonist and antagonist mode
T1 construct: expressed in transfected cells

ADRA2B - AG = ADRA2B - AG (Homo sapiens, UniProt P18089); assay: GPCR panel, cAMP or calcium FLIPR assays; assay type: cell-based
Method: (§1) 28 GPCRs were evaluated through cAMP or calcium FLIPR assays[67].

EphA2(h) = biological target: T2, EphA2(h) (Homo sapiens, UniProt P29317); assay: Kinase panel; assay type: biochemical
T2 construct: purchased Cerep (receptors, ion channels, transporters); Eurofins Panlabs (kinases)
T2 sequence (P29317 24-976): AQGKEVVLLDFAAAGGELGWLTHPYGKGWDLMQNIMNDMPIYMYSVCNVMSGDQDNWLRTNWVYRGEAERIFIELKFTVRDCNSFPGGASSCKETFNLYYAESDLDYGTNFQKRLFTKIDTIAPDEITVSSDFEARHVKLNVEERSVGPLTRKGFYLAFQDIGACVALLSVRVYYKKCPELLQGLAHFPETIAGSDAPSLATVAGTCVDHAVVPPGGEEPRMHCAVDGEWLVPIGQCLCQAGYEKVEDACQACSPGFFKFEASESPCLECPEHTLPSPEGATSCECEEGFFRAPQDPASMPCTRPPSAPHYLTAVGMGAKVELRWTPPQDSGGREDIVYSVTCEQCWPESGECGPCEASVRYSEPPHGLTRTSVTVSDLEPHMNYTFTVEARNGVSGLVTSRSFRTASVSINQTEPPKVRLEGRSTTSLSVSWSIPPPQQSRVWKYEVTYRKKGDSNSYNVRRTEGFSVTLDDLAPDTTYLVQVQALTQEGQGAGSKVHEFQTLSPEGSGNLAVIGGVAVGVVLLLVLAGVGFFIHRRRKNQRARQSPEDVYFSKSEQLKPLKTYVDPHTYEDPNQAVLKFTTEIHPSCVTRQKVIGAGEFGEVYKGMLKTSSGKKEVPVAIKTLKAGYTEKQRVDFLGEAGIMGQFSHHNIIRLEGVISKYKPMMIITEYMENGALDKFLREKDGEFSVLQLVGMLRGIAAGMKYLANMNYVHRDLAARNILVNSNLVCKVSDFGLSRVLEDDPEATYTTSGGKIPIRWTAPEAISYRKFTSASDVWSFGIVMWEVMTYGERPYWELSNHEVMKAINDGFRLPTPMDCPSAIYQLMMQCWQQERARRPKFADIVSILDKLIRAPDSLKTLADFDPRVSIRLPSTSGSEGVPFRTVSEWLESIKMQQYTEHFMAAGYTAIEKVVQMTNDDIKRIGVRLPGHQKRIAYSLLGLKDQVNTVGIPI
Method: (§2) Kinase selectivity was conducted by Eurofins Panlabs Inc (St Charles, MO).

H1 (h) = biological target: T3, H1 (h) (Homo sapiens, UniProt P35367); assay: Cerep panel; assay type: binding
T3 construct: purchased Cerep (receptors, ion channels, transporters); Eurofins Panlabs (kinases)
T3 sequence (P35367 whole entry): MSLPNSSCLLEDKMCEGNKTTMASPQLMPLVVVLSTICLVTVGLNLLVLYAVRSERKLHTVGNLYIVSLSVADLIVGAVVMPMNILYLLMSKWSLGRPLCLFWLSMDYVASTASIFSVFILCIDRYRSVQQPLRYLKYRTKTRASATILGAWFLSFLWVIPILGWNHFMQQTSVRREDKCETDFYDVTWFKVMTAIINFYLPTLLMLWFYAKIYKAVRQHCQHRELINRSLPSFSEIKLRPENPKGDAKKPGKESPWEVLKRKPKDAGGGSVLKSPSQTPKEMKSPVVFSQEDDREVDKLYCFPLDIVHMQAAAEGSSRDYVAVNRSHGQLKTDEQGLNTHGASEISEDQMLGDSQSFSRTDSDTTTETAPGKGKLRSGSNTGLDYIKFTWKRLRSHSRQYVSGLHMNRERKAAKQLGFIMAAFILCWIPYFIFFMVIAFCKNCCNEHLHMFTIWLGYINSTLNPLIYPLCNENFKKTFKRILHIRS
Method: (§3) A panel of 52 different receptors, ion channels and transporters was tested by Cerep, Inc. (Redmond, WA).

H1 = H1 (Homo sapiens, UniProt P35367); assay: GPCR panel, cAMP or calcium FLIPR assays; assay type: cell-based
Sequence of H1 (P35367 whole entry): as above
Method: as §1

ADRA1A = ADRA1A (Homo sapiens, UniProt P35348); assay: GPCR panel, cAMP or calcium FLIPR assays; assay type: cell-based
Sequence of ADRA1A (P35348 whole entry, the tested form may be a part): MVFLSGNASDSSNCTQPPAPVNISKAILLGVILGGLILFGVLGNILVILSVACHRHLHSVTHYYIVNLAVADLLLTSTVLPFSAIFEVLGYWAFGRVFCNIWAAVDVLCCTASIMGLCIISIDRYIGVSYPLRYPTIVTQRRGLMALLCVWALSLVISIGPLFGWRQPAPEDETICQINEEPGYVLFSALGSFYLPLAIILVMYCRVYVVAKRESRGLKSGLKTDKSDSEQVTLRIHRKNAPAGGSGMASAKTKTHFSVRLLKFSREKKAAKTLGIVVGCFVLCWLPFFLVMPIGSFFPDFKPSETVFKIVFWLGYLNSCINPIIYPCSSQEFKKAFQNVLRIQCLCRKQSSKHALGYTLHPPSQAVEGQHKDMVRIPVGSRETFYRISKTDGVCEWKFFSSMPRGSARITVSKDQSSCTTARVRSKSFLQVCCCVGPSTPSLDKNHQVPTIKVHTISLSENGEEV
Method: as §1

RXRα = biological target: T4, RXRα (Homo sapiens, UniProt P19793); assay: nuclear receptor cellular GAL4 reporter assay; assay type: cell-based; conditions: agonist and antagonist mode; read-out: potency in agonist and antagonist mode
T4 construct: expressed in transfected cells
T4 sequence (P19793 whole entry, the tested form may be a part): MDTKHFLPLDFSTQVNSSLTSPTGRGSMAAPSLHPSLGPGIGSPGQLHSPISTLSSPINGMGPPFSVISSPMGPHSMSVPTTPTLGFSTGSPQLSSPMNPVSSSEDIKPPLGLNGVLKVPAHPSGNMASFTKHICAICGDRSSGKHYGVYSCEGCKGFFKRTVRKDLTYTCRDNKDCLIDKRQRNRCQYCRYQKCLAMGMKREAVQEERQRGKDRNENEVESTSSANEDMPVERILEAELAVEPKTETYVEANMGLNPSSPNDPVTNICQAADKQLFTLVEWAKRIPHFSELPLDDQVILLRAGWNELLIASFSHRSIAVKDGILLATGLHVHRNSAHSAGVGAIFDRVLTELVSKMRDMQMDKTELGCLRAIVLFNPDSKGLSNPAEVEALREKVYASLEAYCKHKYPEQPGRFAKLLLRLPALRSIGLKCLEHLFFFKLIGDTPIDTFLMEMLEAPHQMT

GSK3β(h) = biological target: T5, GSK3β(h) (Homo sapiens, UniProt P49841); assay: Kinase panel; assay type: biochemical
T5 construct: purchased Cerep (receptors, ion channels, transporters); Eurofins Panlabs (kinases)
T5 sequence (P49841 whole entry): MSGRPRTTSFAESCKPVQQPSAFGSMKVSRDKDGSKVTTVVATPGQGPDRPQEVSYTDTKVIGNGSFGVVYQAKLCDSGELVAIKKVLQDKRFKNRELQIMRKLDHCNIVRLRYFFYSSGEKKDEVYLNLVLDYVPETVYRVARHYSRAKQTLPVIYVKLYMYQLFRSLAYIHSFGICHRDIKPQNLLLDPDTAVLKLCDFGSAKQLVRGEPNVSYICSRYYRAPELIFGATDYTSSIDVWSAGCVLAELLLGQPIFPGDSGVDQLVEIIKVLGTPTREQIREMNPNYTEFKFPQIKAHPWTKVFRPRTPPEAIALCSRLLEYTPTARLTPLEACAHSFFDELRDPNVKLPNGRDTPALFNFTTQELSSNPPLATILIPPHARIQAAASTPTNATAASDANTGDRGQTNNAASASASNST
Method: as §2

healthy human volunteers = assay: phase 1 single ascending dose study, safety
Method: Randomized, double-blind, placebo-controlled, single center study was designed by Janssen Immunology Clinical Development team and approved by Independent Ethics Committee/Institutional Review Board (Comité voor Medische Ethiek UZA, Wilrijkstraat 10, Edegem, 2650, Belgium). The study was conducted in Janssen’s Clinical Pharmacology Unit in Belgium from May 18th 2017 to April 5th 2018, according to Declaration of Helsinki principles and International Committee on Harmonisation Good Clinical Practice guidelines. […] Participants were healthy males and females of non-childbearing potential (postmenopausal or permanently sterile), aged 18 to 60 years inclusive, with a body mass index of 18 and 30 kg/m^2 and body weight of not less than 50 kg. Informed consent was obtained from all participants. No formal sample size and power calculations were performed. The number of participants chosen for this study was considered adequate to provide a preliminary safety assessment and PK assessment. The randomization was based on a computer-generated treatment randomization schedule prepared and balanced by using randomly permuted blocks. […] Participants and study site staff members including the Investigator were blinded to treatment allocation during entire study period. […] Cohorts 1 to 4 received single oral doses of 10, 30, 100 and 200 mg after an overnight fast, and cohort 5 were dosed 100 mg within 30 min of the start of a standard high fat meal. […] For all parts of the study, adverse events and concomitant medications were assessed and recorded from screening through follow-up (day 14–21 post-dose). The following safety measures were assessed at various time points during the study: medical history, physical examination, neurologic examination, electrocardiogram (12-lead ECG, or continuous telemetry), and vital signs (blood pressure, heart rate, respiratory rate, and temperature). […] This was a Phase 1 first-in-human study with limited sample size, the data generated was descriptive in nature, and no formal statistical hypothesis testing was planned. Although there was no formal interim analysis, assessments of PK and PD samples by cohort and safety assessments were conducted and reviewed during the study to plan dose-escalation and future development.

PPARα = biological target: T6, PPARα (Homo sapiens, UniProt Q07869); assay: nuclear receptor cellular GAL4 reporter assay; assay type: cell-based; conditions: agonist and antagonist mode; read-out: potency in agonist and antagonist mode
T6 construct: expressed in transfected cells
T6 sequence (Q07869 whole entry, the tested form may be a part): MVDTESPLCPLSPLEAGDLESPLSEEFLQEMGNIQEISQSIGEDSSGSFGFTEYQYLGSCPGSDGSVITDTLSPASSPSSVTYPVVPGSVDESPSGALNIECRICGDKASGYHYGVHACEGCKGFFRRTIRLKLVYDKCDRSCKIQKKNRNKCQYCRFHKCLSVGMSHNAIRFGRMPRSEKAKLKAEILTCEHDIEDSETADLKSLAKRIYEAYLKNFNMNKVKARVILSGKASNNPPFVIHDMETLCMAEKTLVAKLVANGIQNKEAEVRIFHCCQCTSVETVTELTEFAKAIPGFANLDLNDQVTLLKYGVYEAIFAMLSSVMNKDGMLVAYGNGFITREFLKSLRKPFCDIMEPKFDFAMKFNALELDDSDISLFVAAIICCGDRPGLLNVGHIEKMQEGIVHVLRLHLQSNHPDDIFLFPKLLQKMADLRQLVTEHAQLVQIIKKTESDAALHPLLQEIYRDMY

A3 (h) = biological target: T7, A3 (h) (Homo sapiens, UniProt P0DMS8); assay: Cerep panel; assay type: binding
T7 construct: purchased Cerep (receptors, ion channels, transporters); Eurofins Panlabs (kinases)
T7 sequence (P0DMS8 1-318): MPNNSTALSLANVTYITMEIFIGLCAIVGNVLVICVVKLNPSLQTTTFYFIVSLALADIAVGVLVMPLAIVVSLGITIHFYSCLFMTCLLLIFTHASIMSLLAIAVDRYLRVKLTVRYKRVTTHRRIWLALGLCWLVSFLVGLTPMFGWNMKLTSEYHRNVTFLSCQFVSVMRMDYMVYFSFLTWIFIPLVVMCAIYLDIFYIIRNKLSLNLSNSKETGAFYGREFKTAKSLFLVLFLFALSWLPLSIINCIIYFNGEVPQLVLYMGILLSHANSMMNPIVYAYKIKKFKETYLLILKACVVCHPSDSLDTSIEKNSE
Method: 28 GPCRs were evaluated through cAMP or calcium FLIPR assays[67]. A panel of 52 different receptors, ion channels and transporters was tested by Cerep, Inc. (Redmond, WA). Kinase selectivity was conducted by Eurofins Panlabs Inc (St Charles, MO).

rabbit fetal development = assay: rabbit embryo-fetal study; assay type: in vivo
Method: Therefore, SAD was dosed only up to 200 mg.

VIP1 (h) (VPAC1) = biological target: T8, VIP1 (h) (VPAC1) (Homo sapiens, UniProt P32241); assay: Cerep panel; assay type: binding
T8 construct: purchased Cerep (receptors, ion channels, transporters); Eurofins Panlabs (kinases)
T8 sequence (P32241 31-457): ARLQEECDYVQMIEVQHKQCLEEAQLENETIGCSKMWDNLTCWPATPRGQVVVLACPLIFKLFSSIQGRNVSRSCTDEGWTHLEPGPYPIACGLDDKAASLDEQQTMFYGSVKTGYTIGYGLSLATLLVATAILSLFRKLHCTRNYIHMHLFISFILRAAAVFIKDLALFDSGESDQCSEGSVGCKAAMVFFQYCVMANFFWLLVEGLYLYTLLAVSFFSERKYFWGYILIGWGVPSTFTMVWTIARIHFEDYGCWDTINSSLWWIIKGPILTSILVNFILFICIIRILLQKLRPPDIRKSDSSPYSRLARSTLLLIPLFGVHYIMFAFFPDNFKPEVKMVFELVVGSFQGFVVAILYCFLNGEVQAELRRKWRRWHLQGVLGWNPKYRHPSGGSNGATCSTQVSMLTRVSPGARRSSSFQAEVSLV
Method: as §3

[1] = 100 mg (fasted) n = 9, single oral dose
[2] = 100 mg (fed) n = 9, single oral dose

Sequence of ADRA2B - AG (P18089 whole entry): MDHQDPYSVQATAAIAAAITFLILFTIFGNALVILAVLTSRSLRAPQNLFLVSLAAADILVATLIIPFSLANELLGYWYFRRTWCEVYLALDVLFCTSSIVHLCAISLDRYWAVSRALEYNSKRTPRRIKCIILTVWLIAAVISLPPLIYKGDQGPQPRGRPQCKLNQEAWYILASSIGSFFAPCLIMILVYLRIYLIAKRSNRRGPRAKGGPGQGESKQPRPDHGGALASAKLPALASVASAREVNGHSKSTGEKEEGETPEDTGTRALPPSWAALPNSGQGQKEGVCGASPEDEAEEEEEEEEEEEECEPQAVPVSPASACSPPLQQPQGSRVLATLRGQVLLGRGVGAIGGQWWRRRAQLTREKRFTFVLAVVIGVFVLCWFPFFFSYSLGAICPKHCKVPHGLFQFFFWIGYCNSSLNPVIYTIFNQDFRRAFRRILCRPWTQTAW
T1 sequence (P10276 whole entry, the tested form may be a part): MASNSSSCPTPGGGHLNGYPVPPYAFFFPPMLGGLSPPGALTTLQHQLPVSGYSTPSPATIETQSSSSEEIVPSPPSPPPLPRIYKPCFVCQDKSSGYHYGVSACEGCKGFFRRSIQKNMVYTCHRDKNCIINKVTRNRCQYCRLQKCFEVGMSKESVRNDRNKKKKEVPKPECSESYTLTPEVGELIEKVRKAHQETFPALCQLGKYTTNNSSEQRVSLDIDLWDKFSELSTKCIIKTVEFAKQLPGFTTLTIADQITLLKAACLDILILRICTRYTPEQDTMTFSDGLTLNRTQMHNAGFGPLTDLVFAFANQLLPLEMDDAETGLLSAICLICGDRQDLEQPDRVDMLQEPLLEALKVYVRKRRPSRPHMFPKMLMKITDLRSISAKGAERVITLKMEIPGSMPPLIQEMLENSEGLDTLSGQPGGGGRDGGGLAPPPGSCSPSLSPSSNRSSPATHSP

CC1CCCN1C(=O)c1nc(C(=O)NCC(C)(C)O)sc1-c1ccc(C(O)(C(F)(F)F)C(F)(F)F)c(Cl)c1Cl (centres unmarked) [JNJ-61803534]
IC50 (RARα): > 1.5 µM | EC50 (ADRA2B - AG; agonist): > 12.5 µM | IC50 (ADRA2B - AG; antagonist): > 12.5 µM | activity at 1 µM (EphA2(h)): 99% | activity at 10 µM (EphA2(h)): 102% | inhibition at 1 µM (H1 (h)): < 10% | inhibition at 10 µM (H1 (h)): < 10% | EC50 (H1; agonist): > 10 µM | IC50 (H1; antagonist): > 10 µM | EC50 (ADRA1A; agonist): > 10 µM | IC50 (ADRA1A; antagonist): > 10 µM | IC50 (RXRα): > 1.5 µM | activity at 1 µM (GSK3β(h)): 111% | activity at 10 µM (GSK3β(h)): 105% | Aphthous ulcer, treatment-emergent adverse events (healthy human volunteers; 10 mg n = 6, single oral dose): 0 | Back pain, treatment-emergent adverse events (healthy human volunteers; 10 mg n = 6, single oral dose): 1 | Diarrhea, treatment-emergent adverse events (healthy human volunteers; 10 mg n = 6, single oral dose): 0 | Headache, treatment-emergent adverse events (healthy human volunteers; 10 mg n = 6, single oral dose): 0 | Hypercholesterolaemia, treatment-emergent adverse events (healthy human volunteers; 10 mg n = 6, single oral dose): 0 | Medical device site reaction, treatment-emergent adverse events (healthy human volunteers; 10 mg n = 6, single oral dose): 0 | Musculoskeletal discomfort, treatment-emergent adverse events (healthy human volunteers; 10 mg n = 6, single oral dose): 0 | Nasal congestion, treatment-emergent adverse events (healthy human volunteers; 10 mg n = 6, single oral dose): 0 | Oral herpes, treatment-emergent adverse events (healthy human volunteers; 10 mg n = 6, single oral dose): 0 | Viral upper respiratory tract infection, treatment-emergent adverse events (healthy human volunteers; 10 mg n = 6, single oral dose): 0 | Aphthous ulcer, treatment-emergent adverse events (healthy human volunteers; 30 mg n = 6, single oral dose): 0 | Back pain, treatment-emergent adverse events (healthy human volunteers; 30 mg n = 6, single oral dose): 0 | Diarrhea, treatment-emergent adverse events (healthy human volunteers; 30 mg n = 6, single oral dose): 0 | Headache, treatment-emergent adverse events (healthy human volunteers; 30 mg n = 6, single oral dose): 1 | Hypercholesterolaemia, treatment-emergent adverse events (healthy human volunteers; 30 mg n = 6, single oral dose): 0 | Medical device site reaction, treatment-emergent adverse events (healthy human volunteers; 30 mg n = 6, single oral dose): 1 | Musculoskeletal discomfort, treatment-emergent adverse events (healthy human volunteers; 30 mg n = 6, single oral dose): 0 | Nasal congestion, treatment-emergent adverse events (healthy human volunteers; 30 mg n = 6, single oral dose): 0 | Oral herpes, treatment-emergent adverse events (healthy human volunteers; 30 mg n = 6, single oral dose): 1 | Viral upper respiratory tract infection, treatment-emergent adverse events (healthy human volunteers; 30 mg n = 6, single oral dose): 0 | Aphthous ulcer, treatment-emergent adverse events (healthy human volunteers; [1]): 0 | Back pain, treatment-emergent adverse events (healthy human volunteers; [1]): 1 | Diarrhea, treatment-emergent adverse events (healthy human volunteers; [1]): 2 | Headache, treatment-emergent adverse events (healthy human volunteers; [1]): 4 | Hypercholesterolaemia, treatment-emergent adverse events (healthy human volunteers; [1]): 2 | Medical device site reaction, treatment-emergent adverse events (healthy human volunteers; [1]): 2 | Musculoskeletal discomfort, treatment-emergent adverse events (healthy human volunteers; [1]): 0 | Nasal congestion, treatment-emergent adverse events (healthy human volunteers; [1]): 2 | Oral herpes, treatment-emergent adverse events (healthy human volunteers; [1]): 0 | Viral upper respiratory tract infection, treatment-emergent adverse events (healthy human volunteers; [1]): 2 | Aphthous ulcer, treatment-emergent adverse events (healthy human volunteers; [2]): 1 | Back pain, treatment-emergent adverse events (healthy human volunteers; [2]): 1 | Diarrhea, treatment-emergent adverse events (healthy human volunteers; [2]): 2 | Headache, treatment-emergent adverse events (healthy human volunteers; [2]): 0 | Hypercholesterolaemia, treatment-emergent adverse events (healthy human volunteers; [2]): 0 | Medical device site reaction, treatment-emergent adverse events (healthy human volunteers; [2]): 2 | Musculoskeletal discomfort, treatment-emergent adverse events (healthy human volunteers; [2]): 0 | Nasal congestion, treatment-emergent adverse events (healthy human volunteers; [2]): 0 | Oral herpes, treatment-emergent adverse events (healthy human volunteers; [2]): 1 | Viral upper respiratory tract infection, treatment-emergent adverse events (healthy human volunteers; [2]): 2 | participants with clinically significant high cholesterol values (healthy human volunteers; 100 mg fasted group): 2 | participants with clinically significant high cholesterol values (healthy human volunteers; 200 mg fasted group): one | Aphthous ulcer, treatment-emergent adverse events (healthy human volunteers; 200 mg n = 6, single oral dose): 1 | Back pain, treatment-emergent adverse events (healthy human volunteers; 200 mg n = 6, single oral dose): 1 | Diarrhea, treatment-emergent adverse events (healthy human volunteers; 200 mg n = 6, single oral dose): 0 | Headache, treatment-emergent adverse events (healthy human volunteers; 200 mg n = 6, single oral dose): 0 | Hypercholesterolaemia, treatment-emergent adverse events (healthy human volunteers; 200 mg n = 6, single oral dose): 1 | Medical device site reaction, treatment-emergent adverse events (healthy human volunteers; 200 mg n = 6, single oral dose): 1 | Musculoskeletal discomfort, treatment-emergent adverse events (healthy human volunteers; 200 mg n = 6, single oral dose): 2 | Nasal congestion, treatment-emergent adverse events (healthy human volunteers; 200 mg n = 6, single oral dose): 0 | Oral herpes, treatment-emergent adverse events (healthy human volunteers; 200 mg n = 6, single oral dose): 0 | Viral upper respiratory tract infection, treatment-emergent adverse events (healthy human volunteers; 200 mg n = 6, single oral dose): 0 | participants with Grade 2 or higher abnormal cholesterol values (healthy human volunteers; combined JNJ-61803534 group): Fourteen | participants with TEAEs reasonably related to the study agent (healthy human volunteers; combined JNJ-61803534 group (diarrhea)): 1 | TEAEs leading to death, treatment-emergent severe adverse events, severe TEAEs or TEAEs leading to discontinuation (healthy human volunteers; in vivo): no | safety and tolerability (healthy human volunteers; single doses up to and including 200 mg): safe and well-tolerated | IC50 (PPARα): > 1.5 µM | inhibition at 1 µM (A3 (h); 1 µM): < 10% | % Inhibition at 10 µM (A3 (h); 10 µM): 45.2% | inhibition at 10 µM (A3 (h); 10 µM): > 50% | effect on fetal development (rabbit fetal development): fetal development was impacted | inhibition at 1 µM (VIP1 (h) (VPAC1)): < 10% | inhibition at 10 µM (VIP1 (h) (VPAC1)): < 10%
